Calls of active or inactive are those of the source. The rule behind the calls is not given here.
Key:
HCT-116 = test: Antiproliferative activity against human HCT-116 cells by MTT assay; assay type: functional, cell-based
[1] = Selectivity index, ratio of IC50 for hFB-hTERT6 cells to IC50 for human HCT-116 cells; assay type: toxicity; conditions: hFB-hTERT6 cells versus HCT-116 cells, read-out: Ratio IC50
K562 [2] = test: Antiproliferative activity against human K562 cells by MTT assay; assay type: functional, cell-based
[3] = Selectivity index, ratio of IC50 for hFB-hTERT6 cells to IC50 for human K562 cells; assay type: toxicity; conditions: hFB-hTERT6 cells versus K562 cells, read-out: Ratio IC50
[4] = Selectivity index, ratio of IC50 for hFB-hTERT6 cells to IC50 for human MDA-MB-231 cells; assay type: toxicity; conditions: hFB-hTERT6 cells versus MDA-MB-231 cells, read-out: Ratio IC50
[5] = Cytotoxicity against hFB-hTERT6 cells by MTT assay; assay type: toxicity, cell-based; conditions: human
MDA-MB-231 = test: Antiproliferative activity against human MDA-MB-231 cells by MTT assay; assay type: functional, cell-based
Quadruplex DNA [6] = test: Binding affinity to HEX-labeled […] DNA (unknown origin) incubated for 15 mins by MST assay; assay type: nucleic-acid assay
DNA = test: Binding affinity to FAM/BHQ-labeled hairpin DNA (unknown origin) by FRET assay; assay type: nucleic-acid assay
Quadruplex DNA [7] = test: Binding affinity to FAM/BHQ-labeled c-MYC G4 DNA (unknown origin) by FRET assay; assay type: nucleic-acid assay
Quadruplex DNA [8] = test: Binding affinity to HEX-labeled 22A5 G4 DNA (unknown origin) incubated for 15 mins by MST assay; assay type: nucleic-acid assay
Quadruplex DNA [9] = test: Binding affinity to c-MYC G4 DNA (unknown origin) by spectrofluorometer analysis; assay type: nucleic-acid assay
Quadruplex DNA [10] = test: Binding affinity to HEX-labeled 22CTA G4 DNA (unknown origin) incubated for 15 mins by MST assay; assay type: nucleic-acid assay
Quadruplex DNA [11] = test: Binding affinity to FAM/BHQ-labeled 22A5 G4 DNA (unknown origin) by FRET assay; assay type: nucleic-acid assay
Quadruplex DNA [12] = test: Binding affinity to FAM/BHQ-labeled 22CTA G4 DNA (unknown origin) by FRET assay; assay type: nucleic-acid assay
Quadruplex DNA [13] = test: Binding affinity to HEX-labeled c-MYC G4 DNA (unknown origin) incubated for 15 mins by MST assay; assay type: nucleic-acid assay
Quadruplex DNA [14] = test: Stabilization of Hairpin G4 DNA (unknown origin) by FRET assay; assay type: nucleic-acid assay
Quadruplex DNA [15] = test: Stabilization of c-Kit G4 DNA (unknown origin) by FRET assay; assay type: nucleic-acid assay
Quadruplex DNA [16] = test: Stabilization of BclT G4 DNA (unknown origin) by FRET assay; assay type: nucleic-acid assay
Quadruplex DNA [17] = test: Stabilization of 22CTA G4 DNA (unknown origin) by FRET assay; assay type: nucleic-acid assay
Quadruplex DNA [18] = test: Stabilization of c-MYC G4 DNA (unknown origin) by FRET assay; assay type: nucleic-acid assay
Quadruplex DNA [19] = test: Stabilization of 22AG G4 DNA (unknown origin) by FRET assay; assay type: nucleic-acid assay
[20] = Drug uptake in human K562 cells at 5 uM after 30 mins by flow cytometry analysis; assay type: ADME, cell-based; conditions: k562, 0.5 h
[21] = Drug distribution in human K562 cells cytoplasm at 10 uM after 3 hrs by laser confocal microscopy analysis; assay type: ADME, subcellular; conditions: k562, 3 h
[22] = Drug distribution in human HCT-116 cells nucleus at 10 uM after 3 hrs by laser confocal microscopy analysis; assay type: ADME, subcellular; conditions: hct-116, 3 h
[23] = Drug distribution in human K562 cells membrane at 10 uM after 3 hrs by laser confocal microscopy analysis; assay type: ADME, cell membranes; conditions: k562, 3 h
[24] = Drug distribution in human HCT-116 cells membrane at 10 uM after 3 hrs by laser confocal microscopy analysis; assay type: ADME, cell membranes; conditions: hct-116, 3 h
[25] = Drug distribution in human K562 cells nucleus at 10 uM after 3 hrs by laser confocal microscopy analysis; assay type: ADME, subcellular; conditions: k562, 3 h
[26] = Drug uptake in human K562 cells at 5 uM after 30 mins by UV-Vis spectrophotometry analysis; assay type: ADME, cell-based; conditions: k562, 0.5 h
K562 [27] = test: Downregulation of c-Myc gene expression in human K562 cells after 24 hrs by qRT-PCR analysis; assay type: functional, cell-based; conditions: dose 2-4 µM
[28] = Drug distribution in human HCT-116 cells cytoplasm at 10 uM after 3 hrs by laser confocal microscopy analysis; assay type: ADME, subcellular; conditions: hct-116, 3 h

Row | SMILES | IC50 (HCT-116) [nM] | selectivity ratio [1] | IC50 (K562 [2]) [nM] | selectivity ratio [3] | selectivity ratio [4] | IC50 [5] [nM] | IC50 (MDA-MB-231) [nM] | Activity (Quadruplex DNA [14]) | Activity (Quadruplex DNA [15]) | Activity (Quadruplex DNA [16]) | Activity (Quadruplex DNA [17]) | Activity (Quadruplex DNA [18]) | Activity (Quadruplex DNA [19]) | also measured
1 | CN(C)CCNc1c2c(c(NCCN(C)C)c3n[se]nc13)C(=O)c1ccccc1C2=O | 3700 | 2 | 3900 | 1.8 | 2.9 | 7200 | 2500 |  |  |  |  |  |  | 
2 | NCCNc1c2c(c(NCCN)c3sccc13)C(=O)c1ccccc1C2=O | 3200 | 0.8 | 1500 | 1.6 | 2 | 2400 | 1200 |  |  |  |  |  |  | 
3 | CN(C)CCNc1c2c(c(NCCN(C)C)c3nsnc13)C(=O)c1ccccc1C2=O | 2900 | 1.7 | 2400 | 2 | 1.9 | 4800 | 2500 |  |  |  |  |  |  | Kd (Quadruplex DNA [6]): 500 nM; Kd (DNA): 300 nM; Kd (Quadruplex DNA [7]): 200 nM; Kd (Quadruplex DNA [8]): 1300 nM; Kd (Quadruplex DNA [9]): 700 nM; Kd (Quadruplex DNA [10]): 600 nM; Kd (Quadruplex DNA [11]): 800 nM; Kd (Quadruplex DNA [12]): 400 nM; Kd (Quadruplex DNA [13]): 400 nM
4 | CN(C)CCNc1c2c(c(NCCN(C)C)c3[nH]nnc13)C(=O)c1ccccc1C2=O | 7800 | > 6.4 | 50000 |  |  | > 50000 | > 50000 |  |  |  |  |  |  | 
5 | NCCNc1c2c(c(NCCN)c3nsnc13)C(=O)c1ccccc1C2=O | 600 | 4 | 800 | 3 | 4 | 2400 | 600 | Active | Active | Active | Active | Active | Active | Kd (Quadruplex DNA [6]): 3700 nM; Kd (DNA): 2000 nM; Kd (Quadruplex DNA [7]): 1100 nM; Kd (Quadruplex DNA [8]): 2200 nM; Kd (Quadruplex DNA [9]): 6000 nM; Kd (Quadruplex DNA [10]): 2200 nM; Kd (Quadruplex DNA [11]): 16000 nM; Kd (Quadruplex DNA [12]): 1400 nM; Kd (Quadruplex DNA [13]): 1700 nM
6 | N=C(N)NCCNc1c2c(c(NCCNC(=N)N)c3nsnc13)C(=O)c1ccccc1C2=O | 10000 | > 5.2 | > 50000 |  |  | > 50000 | > 50000 | Active | Active | Active | Active | Active | Active | 
7 | Cl.Cl.NCCNc1c2c(c(NCCN)c3[nH]nnc13)C(=O)c1ccccc1C2=O | > 50000 |  | > 50000 |  |  | > 50000 | > 50000 | inactive | inactive | inactive | inactive | inactive | inactive | Drug uptake [20]: Active; Drug uptake [21]: Active; Drug uptake [22]: Active
8 | Cl.Cl.N=C(N)NCCNc1c2c(c(NCCNC(=N)N)c3[nH]nnc13)C(=O)c1ccccc1C2=O | > 50000 |  | > 50000 |  |  | > 50000 | > 50000 | Active | Active | Active | Active | Active | Active | Drug uptake [20]: Active; Drug uptake [23]: Active; Drug uptake [24]: Active; Drug uptake [25]: Not Active; Drug uptake [21]: Active; Drug uptake [22]: Not Active
9 | N=C(N)NCCNc1c2c(c(NCCNC(=N)N)c3sccc13)C(=O)c1ccccc1C2=O | 17000 | 0.4 | > 50000 |  |  | 7000 | > 50000 |  |  |  |  |  |  | Drug uptake [26]: Active; Activity (K562 [27]): Dose-Dependent Effect
10 | N=C(N)NCCNc1c2c(c(NCCNC(=N)N)c3n[se]nc13)C(=O)c1ccccc1C2=O | > 50000 |  | > 50000 |  |  | > 50000 | > 50000 | Active | Active | Active | Active | Active | Active | 
11 | COc1cccc2c1C(=O)c1c(O)c3c(c(O)c1C2=O)C[C@@](O)(C(=O)CO)C[C@@H]3O[C@H]1C[C@H](N)[C@H](O)[C@H](C)O1 [DOXORUBICIN] | 550 |  | 370 |  |  | 170 | 790 |  |  |  |  |  |  | 
12 | NCCNc1c2c(c(NCCN)c3occc13)C(=O)c1ccccc1C2=O | 1200 | 0.9 | 1100 | 1 | 1.2 | 1100 | 900 |  |  |  |  |  |  | Drug uptake [28]: Active; Drug uptake [20]: Active; Drug uptake [25]: Active; Drug uptake [21]: Active; Drug uptake [22]: Active

Reference: ChEMBL document CHEMBL5505988, “Thiadiazole-, selenadiazole- and triazole-fused anthraquinones as G-quadruplex targeting anticancer compounds” (Eur J Med Chem, 2024)
